Experimental data published in ChEMBL document CHEMBL1201862, “PubChem BioAssay data set” (2004).
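The compound was tested at five concentrations on cells cultured in 96-well plates, with a 48-hour exposure period. The concentration for 50% growth inhibition is given as GI50.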 The source made the active and inactive calls. Rule as the data show it: active = GI50 up to about 1.1 µM and inactive = higher.

Legend:
Test in all cases: DTP human tumour cell line panel, 48 h
MDA-MB-435 = system: MDA-MB-435
Malme-3M = system: Malme-3M
MCF7 = system: MCF7
SNB-75 = system: SNB-75
SK-MEL-2 = system: SK-MEL-2
BT-549 = system: BT-549
NCI-H522 = system: NCI-H522
SF-268 = system: SF-268
HOP-62 = system: HOP-62
HCT-15 = system: HCT-15
UO-31 = system: UO-31
MDA-N = system: MDA-N
EKVX = system: EKVX
SF-539 = system: SF-539
A549 = system: A549
SN12C = system: SN12C
SK-MEL-28 = system: SK-MEL-28
NCI-H226 = system: NCI-H226
HL-60 = system: HL-60
Hs-578T = system: Hs-578T
HCT-116 = system: HCT-116
SF-295 = system: SF-295
TK-10 = system: TK-10
PC-3 = system: PC-3
CAKI-1 = system: CAKI-1
SNB-19 = system: SNB-19
ACHN = system: ACHN
LOX IMVI = system: LOX IMVI
IGROV-1 = system: IGROV-1
RPMI-8226 = system: RPMI-8226
786-0 = system: 786-0
T47D = system: T47D
K562 = system: K562
SK-OV-3 = system: SK-OV-3
NCI-H460 = system: NCI-H460
NCI/ADR-RES = system: NCI/ADR-RES
OVCAR-8 = system: OVCAR-8
COLO 205 = system: COLO 205
HCC 2998 = system: HCC 2998
SK-MEL-5 = system: SK-MEL-5
RXF 393 = system: RXF 393
U-251 = system: U-251
KM12 = system: KM12
UACC-62 = system: UACC-62
CCRF-CEM = system: CCRF-CEM
UACC-257 = system: UACC-257
MOLT-4 = system: MOLT-4
MDA-MB-231 = system: MDA-MB-231
SW-620 = system: SW-620
NCI-H23 = system: NCI-H23
SR = system: SR
HT-29 = system: HT-29
DU-145 = system: DU-145
OVCAR-5 = system: OVCAR-5
OVCAR-4 = system: OVCAR-4
OVCAR-3 = system: OVCAR-3
A498 = system: A498
HOP-92 = system: HOP-92
M14 = system: M14

SMILES: CC(C(=O)O)c1ccc(-c2ccccc2)c(F)c1 (stereo unspecified) [TARENFLURBIL]
- GI50 (MDA-MB-435): > 100 µM (inactive)
- GI50 (Malme-3M): > 100 µM (inactive)
- GI50 (MCF7): > 100 µM (inactive)
- GI50 (SNB-75): > 100 µM (inactive)
- GI50 (SK-MEL-2): > 100 µM (inactive)
- GI50 (BT-549): > 100 µM (inactive)
- GI50 (NCI-H522): > 100 µM (inactive)
- GI50 (SF-268): > 100 µM (inactive)
- GI50 (HOP-62): > 100 µM (inactive)
- GI50 (HCT-15): > 100 µM
- GI50 (UO-31): > 100 µM (inactive)
- GI50 (MDA-N): > 100 µM (inactive)
- GI50 (EKVX): > 100 µM (inactive)
- GI50 (SF-539): > 100 µM (inactive)
- GI50 (A549): > 100 µM (inactive)
- GI50 (SN12C): > 100 µM (inactive)
- GI50 (SK-MEL-28): > 100 µM (inactive)
- GI50 (NCI-H226): > 100 µM (inactive)
- GI50 (HL-60): > 100 µM (inactive)
- GI50 (Hs-578T): > 100 µM (inactive)

SMILES: O=C(Oc1ccc(C(c2c(O)c3ccccc3oc2=O)c2c(O)c3ccccc3oc2=O)cc1)c1ccc(C(=O)c2ccccc2)cc1
- GI50 (HCT-116): 34.2 µM (inactive)
- GI50 (SF-295): 22 µM (inactive)
- GI50 (TK-10): 17.9 µM (inactive)
- GI50 (PC-3): 18.7 µM (inactive)
- GI50 (MDA-MB-435): 20.3 µM (inactive)
- GI50 (CAKI-1): 28 µM (inactive)
- GI50 (SNB-19): 17.4 µM (inactive)
- GI50 (ACHN): 19.3 µM (inactive)
- GI50 (LOX IMVI): 21.9 µM (inactive)
- GI50 (IGROV-1): 21.4 µM (inactive)
- GI50 (MCF7): 29.4 µM (inactive)
- GI50 (RPMI-8226): 22.6 µM (inactive)
- GI50 (786-0): 33 µM (inactive)
- GI50 (T47D): 34.5 µM (inactive)
- GI50 (K562): 22.1 µM (inactive)
- GI50 (SNB-75): 17.7 µM (inactive)
- GI50 (SK-OV-3): 16.7 µM (inactive)
- GI50 (SK-MEL-2): 17.8 µM (inactive)
- GI50 (NCI-H460): 22.1 µM (inactive)
- GI50 (NCI-H522): 15.4 µM (inactive)
- GI50 (SF-268): 25.6 µM (inactive)
- GI50 (NCI/ADR-RES): 17.3 µM (inactive)
- GI50 (OVCAR-8): 16.6 µM (inactive)
- GI50 (HOP-62): 24.1 µM (inactive)
- GI50 (COLO 205): 29.2 µM (inactive)
- GI50 (HCC 2998): 18.8 µM (inactive)
- GI50 (HCT-15): 37.2 µM
- GI50 (UO-31): 17.8 µM (inactive)
- GI50 (SK-MEL-5): 29.3 µM (inactive)
- GI50 (RXF 393): 27.3 µM (inactive)
- GI50 (U-251): 23.6 µM (inactive)
- GI50 (MDA-N): 36.1 µM (inactive)
- GI50 (KM12): 17.1 µM (inactive)
- GI50 (UACC-62): 19.6 µM (inactive)
- GI50 (CCRF-CEM): 22.6 µM (inactive)
- GI50 (UACC-257): 17.2 µM (inactive)
- GI50 (MOLT-4): 20.7 µM (inactive)
- GI50 (MDA-MB-231): 35.6 µM (inactive)
- GI50 (SW-620): 32.7 µM (inactive)
- GI50 (EKVX): 16.7 µM (inactive)
- GI50 (SF-539): 17.3 µM (inactive)
- GI50 (NCI-H23): 18.5 µM (inactive)
- GI50 (A549): 25.3 µM (inactive)
- GI50 (SR): 26.1 µM (inactive)
- GI50 (SN12C): 43 µM (inactive)
- GI50 (HT-29): 17.7 µM (inactive)
- GI50 (DU-145): 29.1 µM (inactive)
- GI50 (SK-MEL-28): 13.6 µM (inactive)
- GI50 (OVCAR-5): 19.4 µM (inactive)
- GI50 (NCI-H226): 10.6 µM (inactive)
- GI50 (Hs-578T): 37.7 µM (inactive)
- GI50 (OVCAR-4): 38.4 µM (inactive)
- GI50 (OVCAR-3): 18.3 µM (inactive)

SMILES: O=C1C[C@@]23CCC4(CC2CCC[C@H]3O1)OCCO4 (stereo partly specified)
- GI50 (HCT-116): > 100 µM (inactive)
- GI50 (SF-295): > 100 µM (inactive)
- GI50 (PC-3): > 100 µM (inactive)
- GI50 (MDA-MB-435): > 100 µM (inactive)
- GI50 (Malme-3M): > 100 µM (inactive)
- GI50 (SNB-19): > 100 µM (inactive)
- GI50 (ACHN): > 100 µM (inactive)
- GI50 (LOX IMVI): > 100 µM (inactive)
- GI50 (IGROV-1): > 100 µM (inactive)
- GI50 (MCF7): > 100 µM (inactive)
- GI50 (RPMI-8226): > 100 µM (inactive)
- GI50 (786-0): > 100 µM (inactive)
- GI50 (A498): > 100 µM (inactive)
- GI50 (T47D): > 100 µM (inactive)
- GI50 (K562): > 100 µM (inactive)
- GI50 (HOP-92): > 100 µM (inactive)
- GI50 (SK-OV-3): > 100 µM (inactive)
- GI50 (SK-MEL-2): > 100 µM (inactive)
- GI50 (NCI-H460): > 100 µM (inactive)
- GI50 (NCI-H522): > 100 µM (inactive)
- GI50 (SF-268): > 100 µM (inactive)
- GI50 (NCI/ADR-RES): > 100 µM (inactive)
- GI50 (OVCAR-8): > 100 µM (inactive)
- GI50 (HOP-62): > 100 µM (inactive)
- GI50 (COLO 205): > 100 µM (inactive)
- GI50 (HCC 2998): > 100 µM (inactive)
- GI50 (HCT-15): > 100 µM
- GI50 (SK-MEL-5): > 100 µM (inactive)
- GI50 (RXF 393): > 100 µM (inactive)
- GI50 (U-251): > 100 µM (inactive)
- GI50 (MDA-N): > 100 µM (inactive)
- GI50 (KM12): > 100 µM (inactive)
- GI50 (UACC-62): > 100 µM (inactive)
- GI50 (UACC-257): > 100 µM (inactive)
- GI50 (MOLT-4): > 100 µM (inactive)
- GI50 (MDA-MB-231): > 100 µM (inactive)
- GI50 (SW-620): > 100 µM (inactive)
- GI50 (EKVX): > 100 µM (inactive)
- GI50 (SF-539): > 100 µM (inactive)
- GI50 (NCI-H23): > 100 µM (inactive)
- GI50 (A549): > 100 µM (inactive)
- GI50 (SR): > 100 µM (inactive)
- GI50 (SN12C): > 100 µM (inactive)
- GI50 (HT-29): > 100 µM (inactive)
- GI50 (DU-145): > 100 µM (inactive)
- GI50 (SK-MEL-28): > 100 µM (inactive)
- GI50 (OVCAR-5): > 100 µM (inactive)
- GI50 (NCI-H226): > 100 µM (inactive)
- GI50 (HL-60): > 100 µM (inactive)
- GI50 (Hs-578T): > 100 µM (inactive)
- GI50 (OVCAR-4): > 100 µM (inactive)
- GI50 (M14): > 100 µM (inactive)
- GI50 (OVCAR-3): > 100 µM (inactive)
